Values of other authors in US20250082708A1, “HERBAL COMPOSITION FOR USE IN THE TREATMENT OR PREVENTION OF POSTPARTUM DEPRESSION” (CRISTALFARMA S.R.L., priority 2022, published 2025).

Tested on: women with postpartum depression
Details: 8 weeks treatment; Amini et al.

Q: Which “reduction of EPDS questionnaire score with respect to baseline, versus placebo control group” value does the source give for vitamin D here?
A: greater reduction
